From patent US8956824B2, “Methods for identifying allosteric modulators of ship polypeptides” (British Columbia Cancer Agency Branch, priority 2006, dated 2015)
“Also recorded” adds a separate entry of the source.

Target: T1, SHIP1 enzyme (Mus musculus, UniProt Q9ES52)
T1 construct: Full length, wild-type SHIP1 enzyme (wt); made in house; host or cells: 293T cells, transient transfection with pME18S-His-SHIP
T1 sequence (Q9ES52 1-1191): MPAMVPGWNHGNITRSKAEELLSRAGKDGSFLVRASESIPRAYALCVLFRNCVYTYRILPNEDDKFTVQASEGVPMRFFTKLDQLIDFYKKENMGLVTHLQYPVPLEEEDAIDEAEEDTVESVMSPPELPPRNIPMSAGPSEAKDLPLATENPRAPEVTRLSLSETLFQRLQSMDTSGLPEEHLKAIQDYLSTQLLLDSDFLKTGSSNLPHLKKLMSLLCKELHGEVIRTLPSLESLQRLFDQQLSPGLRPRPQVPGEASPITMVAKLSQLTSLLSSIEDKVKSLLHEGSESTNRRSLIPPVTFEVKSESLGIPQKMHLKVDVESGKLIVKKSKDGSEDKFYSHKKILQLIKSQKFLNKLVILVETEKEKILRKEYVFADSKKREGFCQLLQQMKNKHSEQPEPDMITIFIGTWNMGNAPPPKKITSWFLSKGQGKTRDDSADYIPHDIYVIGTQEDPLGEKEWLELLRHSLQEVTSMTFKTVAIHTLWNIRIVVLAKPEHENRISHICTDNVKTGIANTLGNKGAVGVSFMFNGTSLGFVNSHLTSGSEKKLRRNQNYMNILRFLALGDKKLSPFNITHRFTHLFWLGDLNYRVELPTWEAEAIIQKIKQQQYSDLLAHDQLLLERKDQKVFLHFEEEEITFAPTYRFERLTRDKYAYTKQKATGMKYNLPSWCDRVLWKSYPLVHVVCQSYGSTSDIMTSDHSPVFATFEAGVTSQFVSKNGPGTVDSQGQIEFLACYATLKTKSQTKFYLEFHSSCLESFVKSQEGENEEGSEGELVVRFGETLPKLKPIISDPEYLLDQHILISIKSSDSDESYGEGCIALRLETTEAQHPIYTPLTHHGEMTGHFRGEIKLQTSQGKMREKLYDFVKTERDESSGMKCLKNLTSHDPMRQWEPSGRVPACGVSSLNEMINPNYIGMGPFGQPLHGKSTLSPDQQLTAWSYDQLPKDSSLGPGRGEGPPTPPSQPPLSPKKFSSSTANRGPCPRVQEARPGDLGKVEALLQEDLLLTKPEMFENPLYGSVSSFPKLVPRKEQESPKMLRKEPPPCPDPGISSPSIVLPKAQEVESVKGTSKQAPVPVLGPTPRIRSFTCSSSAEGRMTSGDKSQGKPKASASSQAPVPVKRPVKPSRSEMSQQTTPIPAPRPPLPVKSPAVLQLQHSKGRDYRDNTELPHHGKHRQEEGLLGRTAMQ
Assay: In vitro SHIP enzyme assay, wild-type SHIP1
Format: biochemical
Settings: for activation of wild-type SHIP1 enzyme by allosteric activators: PI-3,4-P2 20 μM, AQX-MN100 80 μg/mL=250 μM, 30 μM IP4, FIG. 4B; for SHIP1 enzyme activity in vitro (activation): FIG. 1A / 3B
Text: Production of recombinant SHIP1 enzyme and SHIP1 C2 and PH domains: Recombinant, N-terminal His6 tagged SHIP1 enzyme was expressed in mammalian 293T cells by transient transfection with pME18S-His-SHIP plasmid and purified to >95% homogeneity by Nichelating bead chromatography (Qiagen, Mississauga, Ontario) as assessed by Coomassie Blue visualization of sodium dodecyl sulfate-polyacrylamide gel electrophoresis (SDS-PAGE) separated material. Recombinant SHIP1 C2 domain (amino acid residues 725 to 863) or SHIP1 PH domain (amino acid residues 984-1319) were expressed in E. coli transformed with a pET28C expression vector constructed as described herein. Cultures were induced overnight with 1 mM IPTG, and protein purified from the cell lysates by Ni-chelating bead chromatography was >95% pure by SDS-PAGE analysis.
In vitro SHIP enzyme assay. The SHIP enzyme assay was performed in 96-well microtitre plates with 10 ng of enzyme/well in a total volume of 25 μL of 20 mM Tris HCl, pH 7.5 and 10 mM MgCl2. […] The reaction was allowed to proceed for 20 min at 37° C. and the amount of inorganic phosphate released assessed by the addition of Malachite Green reagent followed by an absorbance measurement at 650 nm (15). SHIP2 enzyme was purchased from Echelon Biosciences (Salt Lake City, Utah) and an equivalent amount of inositol phosphatase activity was used in the in vitro enzyme assay. Enzyme data are expressed as the mean of triplicates+/−SEM. Experiments were performed at least 3 times.

Row | activation of wild-type SHIP1 enzyme by allosteric activators (listed as PI(3,4)P2) | enhancement of SHIP1 enzyme activity (% change relative to vehicle control, 2 μM final concentration, FIGS. 8A-B) | Compound | activation of wild-type SHIP1 enzyme by allosteric activators | SHIP1 enzyme activity in vitro (activation) | activation of SHIP1 relative to Pelorol (40 μg/mL, FIG. 1A)
1 | enhanced |  | phosphatidylinositol-3,4-bisphosphate [PI-3,4-P2, reference compound] | activated SHIP to the same extent as AQX-MN100 |  | 
2 |  | ~500% | Cc1cc(O)cc2c1[C@]1(C)CC[C@H]3C(C)(C)CCC[C@]3(C)[C@H]1C2 [AQX-MN100] | activated SHIP to the same extent; also recorded: enhanced | enhanced SHIP1 enzyme activity in vitro; also recorded: activates SHIP enzyme activity in vitro | 
3 |  |  | Cc1cc(O)c(O)c2c1[C@]1(C)CC[C@H]3C(C)(C)CCC[C@]3(C)[C@H]1C2 [AQX-016A] |  | increases SHIN enzyme activity in vitro and in vivo | 3 fold
